According to ChEMBL document CHEMBL2331554, “Exploring nature profits: development of novel and potent lipophilic antioxidants based on galloyl-cinnamic hybrids” (Eur J Med Chem, 2013):

What was measured:
[1] = Antioxidant activity assessed as inhibition of ABTS radical formation for 15 mins by spectrophotometric analysis; type: functional
[2] = tested on: Radical scavenging activity; assay: Antioxidant activity assessed as inhibition of DPPH radical formation measured every min for 45 mins by spectrophotometric analysis; type: functional

With `O=C(O)/C=C/c1cc(O)c(O)c(O)c1` the IC50 [1] was 7.2 µM, the inhibition [1] was “Dose-dependent effect” and the IC50 [2] was 11.8 µM. The inhibition [2] was “Dose-dependent effect”.
With `CCOC(=O)C(=Cc1ccc(O)c(O)c1)C(=O)OCC` the IC50 [1] was 21.1 µM, the inhibition [1] was “Dose-dependent effect” and the IC50 [2] was 21.9 µM. The inhibition [2] was “Dose-dependent effect”.
With `CCOC(=O)/C=C/c1cc(O)c(O)c(O)c1` the IC50 [1] was 9 µM, the inhibition [1] was “Dose-dependent effect” and the IC50 [2] was 15.1 µM. For the same molecule, the inhibition [2] was “Dose-dependent effect”.
For `CCOC(=O)C(=Cc1cc(O)c(O)c(O)c1)C(=O)OCC`, the IC50 [1] was 7.7 µM, the inhibition [1] was “Dose-dependent effect” and the IC50 [2] was 12.8 µM. For the same molecule, the inhibition [2] was “Dose-dependent effect”.
In the case of `O=C(O)/C=C/c1ccc(O)c(O)c1` [CAFFEIC ACID], the IC50 [1] is reported as 17.9 µM, the inhibition [1] is reported as “Dose-dependent effect” and the IC50 [2] is reported as 18.1 µM. The inhibition [2] was “Dose-dependent effect”.
In the case of `CCOC(=O)/C=C/c1ccc(O)c(O)c1` [ETHYL CAFFEATE], the IC50 [1] is reported as 22.6 µM, the inhibition [1] is reported as “Dose-dependent effect” and the IC50 [2] is reported as 26.6 µM. For the same molecule, the inhibition [2] was “Dose-dependent effect”.
For `O=C(O)c1cc(O)c(O)c(O)c1` [GALLIC ACID], the IC50 [1] was 7.8 µM, the inhibition [1] was “Dose-dependent effect” and the IC50 [2] was 9.9 µM. For the same molecule, the inhibition [2] was “Dose-dependent effect”.
With `Cc1c(C)c2c(c(C)c1O)CCC(C)(C(=O)O)O2` (stereo unspecified) [TROLOX] the IC50 [1] was 26.3 µM, the inhibition [1] was “Dose-dependent effect” and the IC50 [2] was 30.9 µM. For the same molecule, the inhibition [2] was “Dose-dependent effect”.
With VITAMIN E [listing 1 of 2 here] the IC50 [1] was 26.8 µM and the IC50 [2] was 31.1 µM.
In the case of VITAMIN E [listing 2 of 2 here], the inhibition [1] is reported as “Dose-dependent effect” and the inhibition [2] is reported as “Dose-dependent effect”.
